Data reported in US20110262895A1, “METHODS FOR THE DIAGNOSIS OF VARICELLA ZOSTER VIRUS INFECTION” (priority 2008, published 2011).

Columns and labels:
HSV = conditions: cited from earlier work
VZV = conditions: requires VZV thymidine kinase for phosphorylation; cited from earlier work
CMV = conditions: cited from earlier work
[1] = Pain score (0-10) in herpes zoster patients treated with valacyclovir; format: in vivo, human; conditions: oral valacyclovir 1 g 3 times daily for 7 days, 50 patients with follow-up
Method: Methods. All human-study protocols were approved by the Committee for the Protection of Human Subjects of the Lyndon B. Johnson Space Center (control subjects) and by the Institutional Review Board of the University of Texas Health Sciences Center (patients with herpes zoster). Informed consent was obtained from all subjects. The 54 patients with herpes zoster consisted of 29 women (21-82 years old) and 25 men (35-79 years old) (Table 2). All patients with herpes zoster were treated with oral valacyclovir (1 g 3 times daily) for 7 consecutive days. Pain was described by all patients on a scale of 0 (no pain) to 10 (worst pain) (Jacox et al., 1994). Six control subjects consisted of 5 women (24-64 years old) and 1 person with chronic pain due to malignancy or non-VZV inflammatory disease. Fourteen additional healthy control subjects consisted of 9 men and 5 women (34-70 years old). Three saliva samples were collected at weekly intervals from all 6 control subjects with chronic pain and from the 14 healthy control subjects.

[2] = system: varicella-zoster virus (VZV) DNA in saliva; assay: Salivary VZV DNA by real-time PCR in herpes zoster patients treated with valacyclovir; format: in vivo, human; conditions: oral valacyclovir 1 g 3 times daily for 7 days, 50 patients with follow-up
Method: Methods. All human-study protocols were approved by the Committee for the Protection of Human Subjects of the Lyndon B. Johnson Space Center (control subjects) and by the Institutional Review Board of the University of Texas Health Sciences Center (patients with herpes zoster). Informed consent was obtained from all subjects. The 54 patients with herpes zoster consisted of 29 women (21-82 years old) and 25 men (35-79 years old) (Table 2). All patients with herpes zoster were treated with oral valacyclovir (1 g 3 times daily) for 7 consecutive days. Pain was described by all patients on a scale of 0 (no pain) to 10 (worst pain) (Jacox et al., 1994). […]
Saliva samples from all subjects were obtained by having subjects suck on a cotton plug for 1-2 min, after which the saturated cotton was placed in a salivette tube (Sarstedt). […] Quantitative real-time polymerase chain reaction (PCR) was performed in a TaqMan 7700 sequence detector (Applied Biosystems) using fluorescence-based simultaneous amplification and product detection.
Primers and probes specific for VZV, herpes simplex virus (HSV)-1 and GAPDH DNA sequences have been described elsewhere (Mehta et al., 2004; Cohrs et al., 2000). […] At the height of CPE, cells were analyzed by PCR with HSV-1-specific and VZV-specific primers (Mehta et al., 2004; Cohrs et al., 2000) and by immunohistochemistry for viral antigens.

Structure (SMILES)	activity against HSV (HSV)	activity against VZV (VZV)	activity against CMV (CMV)	patients in whom pain decreased ([1]; 14-day study period)	patients in whom pain disappeared ([1]; end of 2-week study period)	patients in whom VZV DNA disappeared from saliva ([2]; 2-week study period)	patients in whom virus DNA copy numbers decreased in saliva ([2]; 14-day study period)
CC#Cc1cn([C@@H]2O[C@H](CO)[C@@H](O)[C@@H]2O)c(=O)[nH]c1=O [882C]	without any significant activity	specific activity against VZV	without any significant activity	–	–	–	–
CC(C)[C@H](N)C(=O)OCCOCn1cnc2c(=O)[nH]c(N)nc21 [valacyclovir]	–	–	–	86%	74%	82%	94%
